Reference: article PMC12749626, “Expediting hit-to-lead progression in drug discovery through reaction prediction and multi-dimensional optimization” (Nature Communications, 2025)
Converted amounts (≈) assume the structure as drawn.

Key:
[1] = molecular target: ANGIOTENSIN II REC. 1 (Homo sapiens, UniProt P30556); experiment: biochemical; conditions: read-out: ANGIOTENSIN II REC. 1 percent activity or inhibition compared to the assay reference
[2] = molecular target: GSK-3A (Homo sapiens, UniProt P49840); experiment: biochemical; conditions: read-out: GSK-3A percent activity or inhibition compared to the assay reference
[3] = molecular target: 5HT3 (Homo sapiens, UniProt P46098); experiment: biochemical; conditions: read-out: 5HT3 percent activity or inhibition compared to the assay reference
[4] = molecular target: ANDROGEN REC. (Homo sapiens, UniProt P10275); experiment: biochemical; conditions: read-out: ANDROGEN REC. percent activity or inhibition compared to the assay reference
[5] = Microsomal clearance, human microsomes
[6] = molecular target: CDK2 (Homo sapiens, UniProt P24941); experiment: biochemical; conditions: read-out: CDK2 percent activity or inhibition compared to the assay reference
[7] = molecular target: α1A-ADRENOCEPTOR (Homo sapiens, UniProt P35348); experiment: biochemical; conditions: read-out: α1A-ADRENOCEPTOR percent activity or inhibition compared to the assay reference
[8] = molecular target: PHOSPHODIESTERASE 3B (Homo sapiens, UniProt Q13370); experiment: biochemical; conditions: read-out: PHOSPHODIESTERASE 3B percent activity or inhibition compared to the assay reference
[9] = molecular target: 5HT1A (Homo sapiens, UniProt P08908); experiment: biochemical; conditions: read-out: 5HT1A percent activity or inhibition compared to the assay reference
[10] = molecular target: ESTROGEN REC. α (Homo sapiens, UniProt P03372); experiment: biochemical; conditions: read-out: ESTROGEN REC. α percent activity or inhibition compared to the assay reference
[11] = molecular target: PROSTAGLANDIN F REC. (Homo sapiens, UniProt P43088); experiment: biochemical; conditions: read-out: PROSTAGLANDIN F REC. percent activity or inhibition compared to the assay reference
[12] = molecular target: β2-ADRENOCEPTOR (Homo sapiens, UniProt P07550); experiment: biochemical; conditions: read-out: β2-ADRENOCEPTOR percent activity or inhibition compared to the assay reference
[13] = molecular target: MONOAMINE OXIDASE-A (Homo sapiens, UniProt P21397); experiment: biochemical; conditions: read-out: MONOAMINE OXIDASE-A percent activity or inhibition compared to the assay reference
[14] = molecular target: GLUC[…]. (Homo sapiens, UniProt P04150); experiment: biochemical; conditions: read-out: GLUC[…]. percent activity or inhibition compared to the assay reference
[15] = molecular target: PHOSPHODIESTERASE 4D2 (Homo sapiens, UniProt Q08499); experiment: biochemical; conditions: read-out: PHOSPHODIESTERASE 4D2 percent activity or inhibition compared to the assay reference
[16] = molecular target: NORE[…]. (Homo sapiens, UniProt P23975); experiment: biochemical; conditions: read-out: NORE[…]. percent activity or inhibition compared to the assay reference
[17] = molecular target: CYP2D6 (Homo sapiens, UniProt P10635); experiment: Cytochrome P450 inhibition assay, CYP2D6; conditions: liver microsomes
[18] = molecular target: HISTAMINE H3 REC. (Homo sapiens, UniProt Q9Y5N1); experiment: biochemical; conditions: read-out: HISTAMINE H3 REC. percent activity or inhibition compared to the assay reference
[19] = molecular target: XANTHINE OXIDASE (Bos taurus, UniProt P80457); experiment: biochemical; conditions: read-out: XANTHINE OXIDASE percent activity or inhibition compared to the assay reference
[20] = molecular target: HIV-1 PROTEASE (Human immunodeficiency virus type 1 group M subtype B, UniProt P04585); experiment: biochemical; conditions: read-out: HIV-1 PROTEASE percent activity or inhibition compared to the assay reference
[21] = molecular target: ABCB1 (MDR1, human P-gp) (Homo sapiens, UniProt P08183); experiment: P-glycoprotein (P-gp) assay in LLC-PK1 cells transfected with ABCB1; conditions: for Papp A→B: human, LLC-PK1
[22] = molecular target: C[…]. CB1 (Homo sapiens, UniProt P21554); experiment: biochemical; conditions: read-out: C[…]. CB1 percent activity or inhibition compared to the assay reference
[23] = Microsomal clearance, mouse microsomes
[24] = Solubility in 0.05M PO4-; type: physicochemical; conditions: for solubility: 0.05 M phosphate buffer, aqueous buffer
[25] = molecular target: CYP3A4 (Homo sapiens, UniProt P08684); experiment: Cytochrome P450 inhibition assay, CYP3A4; conditions: liver microsomes
[26] = molecular target: A[…]. ENZ. (Homo sapiens, UniProt P12821); experiment: biochemical; conditions: read-out: A[…]. ENZ. percent activity or inhibition compared to the assay reference
[27] = molecular target: DOPAMINE D2 REC. (short) (Homo sapiens, UniProt P14416); experiment: biochemical; conditions: read-out: DOPAMINE D2 REC. (short) percent activity or inhibition compared to the assay reference
[28] = tested on: GABA-A (BENZ[…]); conditions: 10 uM; n=2
[29] = tested on: NEURONAL NICOTINIC REC.; conditions: 10 uM; n=2
[30] = tested on: GLYCINE REC.; conditions: 10 uM; n=2

ANGIOTENSIN II REC. 1, sequence (P30556 whole entry): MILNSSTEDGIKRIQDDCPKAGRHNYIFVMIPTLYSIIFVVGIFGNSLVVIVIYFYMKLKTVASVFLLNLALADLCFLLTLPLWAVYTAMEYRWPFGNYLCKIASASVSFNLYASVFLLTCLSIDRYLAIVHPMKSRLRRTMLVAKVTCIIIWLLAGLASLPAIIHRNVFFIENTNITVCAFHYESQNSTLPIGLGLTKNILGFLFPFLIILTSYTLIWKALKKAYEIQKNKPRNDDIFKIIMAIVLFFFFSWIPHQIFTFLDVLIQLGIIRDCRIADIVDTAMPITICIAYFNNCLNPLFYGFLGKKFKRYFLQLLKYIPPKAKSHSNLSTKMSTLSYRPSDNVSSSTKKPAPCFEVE
ANDROGEN REC., sequence (P10275 whole entry): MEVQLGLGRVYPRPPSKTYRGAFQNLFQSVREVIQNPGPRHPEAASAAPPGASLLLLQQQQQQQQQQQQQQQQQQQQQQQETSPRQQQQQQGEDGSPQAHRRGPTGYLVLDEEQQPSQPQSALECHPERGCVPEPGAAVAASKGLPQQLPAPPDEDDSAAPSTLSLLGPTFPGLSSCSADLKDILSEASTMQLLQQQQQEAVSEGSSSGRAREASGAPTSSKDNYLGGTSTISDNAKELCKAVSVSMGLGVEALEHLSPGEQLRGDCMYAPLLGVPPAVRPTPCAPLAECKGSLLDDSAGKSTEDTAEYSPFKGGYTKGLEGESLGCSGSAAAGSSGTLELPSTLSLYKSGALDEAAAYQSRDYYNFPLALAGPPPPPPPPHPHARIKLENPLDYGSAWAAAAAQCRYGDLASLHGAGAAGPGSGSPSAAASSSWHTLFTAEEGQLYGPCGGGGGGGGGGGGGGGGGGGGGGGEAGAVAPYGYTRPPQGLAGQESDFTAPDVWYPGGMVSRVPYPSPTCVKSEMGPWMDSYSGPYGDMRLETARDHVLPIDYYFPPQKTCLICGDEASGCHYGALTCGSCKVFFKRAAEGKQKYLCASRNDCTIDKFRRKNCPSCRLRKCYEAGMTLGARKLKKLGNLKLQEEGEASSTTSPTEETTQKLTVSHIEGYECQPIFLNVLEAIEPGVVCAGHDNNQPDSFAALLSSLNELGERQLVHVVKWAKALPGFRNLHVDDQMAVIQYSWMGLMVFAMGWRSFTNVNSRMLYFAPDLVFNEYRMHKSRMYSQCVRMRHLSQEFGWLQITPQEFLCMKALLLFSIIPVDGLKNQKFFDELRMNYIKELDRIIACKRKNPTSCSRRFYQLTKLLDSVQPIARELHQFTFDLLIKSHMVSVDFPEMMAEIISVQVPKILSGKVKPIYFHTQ
UniProt P35348, sequence (P35348 whole entry): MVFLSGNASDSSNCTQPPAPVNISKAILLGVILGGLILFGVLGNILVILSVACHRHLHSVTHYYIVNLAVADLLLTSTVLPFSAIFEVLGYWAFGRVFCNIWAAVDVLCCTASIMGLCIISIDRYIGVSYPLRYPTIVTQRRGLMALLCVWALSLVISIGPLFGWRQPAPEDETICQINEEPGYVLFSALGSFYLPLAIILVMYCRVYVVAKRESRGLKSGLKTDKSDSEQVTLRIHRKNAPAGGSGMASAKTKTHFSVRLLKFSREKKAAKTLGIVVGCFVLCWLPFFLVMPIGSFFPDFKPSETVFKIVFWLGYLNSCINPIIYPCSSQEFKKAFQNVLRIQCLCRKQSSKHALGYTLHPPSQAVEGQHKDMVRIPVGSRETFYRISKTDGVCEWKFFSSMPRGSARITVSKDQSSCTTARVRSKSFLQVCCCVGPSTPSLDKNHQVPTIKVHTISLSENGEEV
C[…]. CB1, sequence (P21554 whole entry): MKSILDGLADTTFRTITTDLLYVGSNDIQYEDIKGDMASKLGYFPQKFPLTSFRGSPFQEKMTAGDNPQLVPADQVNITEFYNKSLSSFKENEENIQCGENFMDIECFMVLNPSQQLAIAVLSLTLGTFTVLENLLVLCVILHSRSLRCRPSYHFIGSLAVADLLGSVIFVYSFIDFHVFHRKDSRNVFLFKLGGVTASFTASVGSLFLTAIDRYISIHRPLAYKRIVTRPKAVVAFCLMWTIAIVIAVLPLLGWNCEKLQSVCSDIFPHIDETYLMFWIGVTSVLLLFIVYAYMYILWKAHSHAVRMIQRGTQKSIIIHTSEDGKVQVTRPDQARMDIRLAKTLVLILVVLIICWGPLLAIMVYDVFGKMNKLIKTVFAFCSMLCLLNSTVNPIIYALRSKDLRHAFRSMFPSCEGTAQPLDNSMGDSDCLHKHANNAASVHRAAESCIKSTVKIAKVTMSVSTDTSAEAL
A[…]. ENZ., sequence (P12821 30-1306): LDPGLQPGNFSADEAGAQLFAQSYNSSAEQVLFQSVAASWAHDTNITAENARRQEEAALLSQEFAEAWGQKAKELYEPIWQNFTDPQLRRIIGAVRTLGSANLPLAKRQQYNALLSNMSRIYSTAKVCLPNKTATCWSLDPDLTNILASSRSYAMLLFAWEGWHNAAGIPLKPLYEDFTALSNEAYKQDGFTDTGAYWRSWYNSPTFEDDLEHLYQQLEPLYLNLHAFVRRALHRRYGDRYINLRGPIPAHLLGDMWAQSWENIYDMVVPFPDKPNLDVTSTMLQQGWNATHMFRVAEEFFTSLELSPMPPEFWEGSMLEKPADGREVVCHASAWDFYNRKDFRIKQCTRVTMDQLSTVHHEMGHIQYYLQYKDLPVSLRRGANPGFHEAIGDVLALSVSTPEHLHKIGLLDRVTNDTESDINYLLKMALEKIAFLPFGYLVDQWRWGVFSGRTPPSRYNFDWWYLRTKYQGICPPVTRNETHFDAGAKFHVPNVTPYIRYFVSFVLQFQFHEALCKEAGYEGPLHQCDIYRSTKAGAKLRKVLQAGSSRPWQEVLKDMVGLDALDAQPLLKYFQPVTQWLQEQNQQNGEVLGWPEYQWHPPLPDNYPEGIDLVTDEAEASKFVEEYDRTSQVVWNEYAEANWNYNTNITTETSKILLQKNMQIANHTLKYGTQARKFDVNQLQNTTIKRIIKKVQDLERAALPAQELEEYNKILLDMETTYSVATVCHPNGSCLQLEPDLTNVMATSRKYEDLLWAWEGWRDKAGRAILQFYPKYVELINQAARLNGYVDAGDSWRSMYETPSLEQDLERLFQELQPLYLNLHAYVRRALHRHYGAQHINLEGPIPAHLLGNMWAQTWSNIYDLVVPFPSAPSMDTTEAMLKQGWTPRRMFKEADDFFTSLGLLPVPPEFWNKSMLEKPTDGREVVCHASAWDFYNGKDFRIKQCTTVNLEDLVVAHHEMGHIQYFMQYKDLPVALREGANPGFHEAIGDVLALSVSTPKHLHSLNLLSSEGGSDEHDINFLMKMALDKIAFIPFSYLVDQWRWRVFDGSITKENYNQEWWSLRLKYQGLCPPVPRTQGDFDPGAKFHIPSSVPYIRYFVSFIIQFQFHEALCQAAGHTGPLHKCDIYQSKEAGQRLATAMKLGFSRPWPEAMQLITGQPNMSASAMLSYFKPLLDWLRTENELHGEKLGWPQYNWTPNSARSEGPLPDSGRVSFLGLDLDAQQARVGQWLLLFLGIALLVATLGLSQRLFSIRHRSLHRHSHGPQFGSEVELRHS
NORE[…]., sequence (P23975 whole entry): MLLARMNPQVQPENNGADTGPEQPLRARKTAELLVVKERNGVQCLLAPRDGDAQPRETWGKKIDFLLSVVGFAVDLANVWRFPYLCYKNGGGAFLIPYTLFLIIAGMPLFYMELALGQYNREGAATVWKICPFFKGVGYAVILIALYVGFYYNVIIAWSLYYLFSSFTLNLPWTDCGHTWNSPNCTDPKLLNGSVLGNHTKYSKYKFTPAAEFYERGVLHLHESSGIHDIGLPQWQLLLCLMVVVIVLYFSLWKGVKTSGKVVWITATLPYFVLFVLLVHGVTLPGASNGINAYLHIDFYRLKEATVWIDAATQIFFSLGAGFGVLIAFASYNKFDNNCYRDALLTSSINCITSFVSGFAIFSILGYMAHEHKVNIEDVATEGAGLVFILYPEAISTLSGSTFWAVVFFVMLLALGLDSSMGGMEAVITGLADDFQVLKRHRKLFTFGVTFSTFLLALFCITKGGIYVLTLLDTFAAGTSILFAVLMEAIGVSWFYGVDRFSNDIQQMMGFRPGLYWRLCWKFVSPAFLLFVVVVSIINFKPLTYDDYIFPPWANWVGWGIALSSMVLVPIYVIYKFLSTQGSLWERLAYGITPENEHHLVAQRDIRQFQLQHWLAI
UniProt Q08499, sequence (Q08499 303-809): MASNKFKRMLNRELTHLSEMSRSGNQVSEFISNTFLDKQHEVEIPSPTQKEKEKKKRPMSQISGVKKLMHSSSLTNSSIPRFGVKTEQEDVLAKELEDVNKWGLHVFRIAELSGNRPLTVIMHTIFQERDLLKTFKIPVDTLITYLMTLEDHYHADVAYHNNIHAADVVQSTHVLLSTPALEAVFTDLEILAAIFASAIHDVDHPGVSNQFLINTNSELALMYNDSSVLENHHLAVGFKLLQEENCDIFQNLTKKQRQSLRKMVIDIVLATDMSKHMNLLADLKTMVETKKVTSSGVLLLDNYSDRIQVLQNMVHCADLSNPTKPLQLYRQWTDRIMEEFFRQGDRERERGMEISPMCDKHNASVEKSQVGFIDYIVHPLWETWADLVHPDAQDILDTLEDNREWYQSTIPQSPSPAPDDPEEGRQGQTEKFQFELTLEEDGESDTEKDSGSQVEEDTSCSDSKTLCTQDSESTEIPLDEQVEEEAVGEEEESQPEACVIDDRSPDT
UniProt P43088, sequence (P43088 whole entry): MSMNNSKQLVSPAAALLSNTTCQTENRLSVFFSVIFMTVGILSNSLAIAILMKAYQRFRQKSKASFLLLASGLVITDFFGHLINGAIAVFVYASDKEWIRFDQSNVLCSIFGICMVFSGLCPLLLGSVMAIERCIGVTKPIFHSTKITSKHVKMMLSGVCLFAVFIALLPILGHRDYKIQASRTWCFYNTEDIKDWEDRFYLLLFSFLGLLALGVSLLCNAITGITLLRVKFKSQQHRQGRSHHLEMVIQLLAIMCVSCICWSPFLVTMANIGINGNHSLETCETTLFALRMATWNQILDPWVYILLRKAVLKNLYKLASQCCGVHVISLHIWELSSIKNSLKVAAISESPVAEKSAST

SMILES | inhibition at 10 µM [1] | inhibition at 10 µM [2] | inhibition at 10 µM [3] | inhibition at 10 µM [4] | microsomal CLint at 1 µM [5] | inhibition at 10 µM [6] | inhibition at 10 µM [7] | inhibition at 10 µM [8] | inhibition at 10 µM [9] | inhibition at 10 µM [10] | inhibition at 10 µM [11] | inhibition at 10 µM [12] | inhibition at 10 µM [13] | inhibition at 10 µM [14] | inhibition at 10 µM [15] | inhibition at 10 µM [16] | CYP2D6 Inhibition [17] | inhibition at 10 µM [18] | inhibition at 10 µM [19] | CYP3A4 Inhibition [25] | also measured
O=C(c1ccc2nc(-c3cccnc3)oc2c1)N1CCN(c2nc3ccccc3c(=O)[nH]2)CC1 [Compound 17] | -3% | 8% | 0% | 6% | 10 µL/min/mg | 3% | 13% | 2% | 1% | 0% | -2% | 1% | 7% | -13% | 21% | 15% | -24% | 14% | 2% | 16% | inhibition at 10 µM [20]: 11%; Papp A→B [21]: 11.7 ×10⁻⁶ cm/s; inhibition at 10 µM [22]: 2%; microsomal CLint at 1 µM [23]: 10 µL/min/mg; solubility [24]: 4.2 µg/mL (≈ 9.28 µM); inhibition at 10 µM [26]: 16%; inhibition at 10 µM [27]: -10%
O=C(c1ccc2nc(-c3cnccc3C3CCCC3)oc2c1)N1CCN(c2nc3nc(Cl)ccc3o2)CC1 [Compound 23] | 11% | 1% | -6% | -10% | 415 µL/min/mg | 8% | 4% | -8% | 11% | 5% | -3% | 4% | 2% | -2% | 20% | 15% | 38% | 4% | 6% | > 90% | GABA-A (BENZ[…]) percent activity or inhibition compared to the assay reference [28]: 10%; NEURONAL NICOTINIC REC. percent activity or inhibition compared to the assay reference [29]: -3%; inhibition at 10 µM [20]: 31%; Papp A→B [21]: 8.9 ×10⁻⁶ cm/s; inhibition at 10 µM [22]: 2%; microsomal CLint at 1 µM [23]: 176 µL/min/mg; solubility [24]: < 0.05 µg/mL; inhibition at 10 µM [26]: -17%; GLYCINE REC. percent activity or inhibition compared to the assay reference [30]: 7%; inhibition at 10 µM [27]: -15%
O=C(c1ccc2nc(-c3cnccc3C3(C4CCC4)CC3)oc2c1)N1CCN(c2nc3nc(Cl)ccc3o2)CC1 [Compound 27] |  |  |  |  |  |  |  |  |  |  |  |  |  |  |  |  | 79% |  |  | > 90% | GABA-A (BENZ[…]) percent activity or inhibition compared to the assay reference [28]: 9%; NEURONAL NICOTINIC REC. percent activity or inhibition compared to the assay reference [29]: -8%; P-gp ([21]; apparent permeability, apical-to-basolateral, LLC-PK1 cells with human P-gp): 71 nm/s; Solubility in 0.05M PO4- [24]: < 0.6 µg/mL; GLYCINE REC. percent activity or inhibition compared to the assay reference [30]: 3%
O=C(c1ccc2nc(-c3cnccc3C3CCCC3)oc2c1)N1CC2(CC(n3cnc(C4CC4)n3)C2)C1 [Compound 29] | 15% | 16% | -2% | 7% | 425 µL/min/mg | -6% | 50% | 6% | 19% | -3% | 21% | 7% | 0% | -6% | 65% | 22% | 34% | 12% | 3% | 84% | GABA-A (BENZ[…]) percent activity or inhibition compared to the assay reference [28]: -1%; NEURONAL NICOTINIC REC. percent activity or inhibition compared to the assay reference [29]: 6%; inhibition at 10 µM [20]: 31%; Papp A→B [21]: 13.2 ×10⁻⁶ cm/s; inhibition at 10 µM [22]: 9%; microsomal CLint at 1 µM [23]: 536 µL/min/mg; solubility [24]: < 0.05 µg/mL; inhibition at 10 µM [26]: -13%; GLYCINE REC. percent activity or inhibition compared to the assay reference [30]: -2%; inhibition at 10 µM [27]: 4%
